Data on three compounds can be found in patent publication US6432438B1, “Biodegradable vehicle and filler” (priority 1997, dated 2002).

Structures can show the parent of a compound that is named as a salt.

Data set [1] can be described thus: Solubility in water / dissolution buffer. Format: physicochemical. As to conditions: compared to hydrated naltrexone base; isotonic phosphate buffer.
Data set [2] in a line: Drug release from drug-loaded biodegradable vehicles at 37° C. in isotonic phosphate buffer. Conditions: compared to hydrated naltrexone base, 25% polymer (i.v. 0.64) with pure PEG 400 or 50/50% PEG 400/TEC, drug 20% w/w. Format: physicochemical.
For data set [3] the following is noted: hydrochloride salt compared to the base; cited from earlier work.
Data set [4] in a line: Drug release from drug-loaded biodegradable vehicles at 37° C. in isotonic phosphate buffer. Conditions: for drug release: drug 20% w/w. It is filed as physicochemical. The method, then:
A polymer (25% w/w of 50/50 lactide-co-glycolide copolymer, inherent viscosity of 0.59) was dissolved in a minimum quantity of acetone. […] The resulting solutions were stirred to yield uniform mixtures. Acetone was evaporated from the mixtures by heating at 60-75° C. with constant stirring. The biodegradable vehicles were kept in a vacuum oven at 60-75° C. overnight to ensure complete removal of acetone. […] Oxytetracycline base (20% w/w) was added to each biodegradable vehicle and mixed thoroughly to ensure uniform distribution of the drug in the formulations. Drug release from the drug-loaded biodegradable vehicles was performed at 37° C. in isotonic phosphate buffer containing sodium sulfite as an antioxidant. […]
A polymer (25% w/w of 50/50 lactide-co-glycolide copolymer, inherent viscosity of 0.59) was dissolved in a minimum quantity of acetone. Either pure polyethylene glycol 400, triethyl citrate (TEC) or acetyl triethyl citrate (ATEC) was added to the polymer solution. The resulting solutions were stirred to yield uniform mixtures. Acetone was evaporated from the mixtures by heating at 60-75° C. with constant stirring. The biodegradable vehicles were kept in a vacuum oven at 60-75° C. overnight to ensure complete removal of acetone. […] Oxytetracycline base (20% w/w) was added to each biodegradable vehicle and mixed thoroughly to ensure uniform distribution of the drug in the formulations. Drug release from the drug-loaded biodegradable vehicles was performed at 37° C. in isotonic phosphate buffer containing sodium sulfite as an antioxidant. Drug release was fastest from formulations prepared with PEG 400, and slowest from those prepared with ATEC.
The resulting solutions were stirred to yield uniform mixtures. Acetone was evaporated from the mixtures by heating at 60-75° C. with constant stirring. The biodegradable vehicles were kept in a vacuum oven at 60-75° C. overnight to ensure complete removal of acetone. […] Oxytetracycline base (20% w/w) was added to each biodegradable vehicle and mixed thoroughly to ensure uniform distribution of the drug in the vehicles. Drug release from the drug-loaded biodegradable vehicles was performed at 37° C. in isotonic phosphate buffer containing sodium sulfite as an antioxidant. Faster drug release was observed from formulations prepared with a 16.67% polymer and 83.3% of plasticizer blends of varying compositions (polymer to plasticizer ratio of 1:5) compared to those prepared from formulations with polymer to plasticizer ratios of […] (i.e. […]). This is because increasing the polymer concentration in the formulations from 16.67% to 33.3% increased the viscosity of the formulations and decreased the drug diffusion from the formulations. […]
The solutions were stirred to yield a uniform mixture. Acetone was evaporated from the mixtures by heating at 60-75° C. with constant stirring. The biodegradable vehicles were kept in a vacuum oven at 60-75° C. overnight to ensure complete removal of acetone. […] Either hydrated naltrexone base (20% w/w) or naltrexone hydrochloride (20% w/w) was added to the biodegradable vehicles and mixed thoroughly to ensure uniform distribution of the drugs in the formulations. Drug release from the drug-loaded biodegradable vehicles was performed at 37° C. in isotonic phosphate buffer. […] This is because the solubility of the naltrexone hydrochloride in the dissolution buffer is much greater than that of the hydrated naltrexone base.
A similar drug release study was performed with formulations containing either 20% oxytetracycline hydrochloride or 20% oxytetracycline base. […] The solutions were stirred to yield a uniform mixture. Acetone was evaporated from the mixtures by heating at 60-75° C. with constant stirring. The biodegradable vehicles were kept in a vacuum oven at 60-75° C. overnight to ensure complete removal of acetone. […]

Consider `O=C1CC[C@@]2(O)[C@H]3Cc4ccc(O)c5c4[C@@]2(CCN3CC2CC2)[C@H]1O5` [naltrexone hydrochloride], for which the “solubility in the dissolution buffer” value in data set [1] is given as “much greater”. Besides, the drug release result in data set [2] is given as “considerably faster”.
Regarding `CN(C)[C@@H]1C(O)=C(C(N)=O)C(=O)[C@@]2(O)C(O)=C3C(=O)c4c(O)cccc4[C@@](C)(O)[C@H]3[C@H](O)[C@@H]12` [oxytetracycline hydrochloride], the aqueous solubility entry in data set [3] is reported as “greater”.
On to `CN(C)[C@@H]1C(=O)C(C(N)=O)=C(O)[C@@]2(O)C(=O)C3=C(O)c4c(O)cccc4[C@@](C)(O)[C@H]3[C@H](O)[C@@H]12` [oxytetracycline base], for which the drug release entry in data set [4] (blend of 75% PEG 400 and 25% TEC compared to 50/50% PEG 400/TEC at similar polymer to plasticizer ratios) is reported as “considerably faster”; in data set [4] (formulations prepared from TEC, 25% w/w polymer, compared among PEG 400, TEC, ATEC), “Intermediate”; in data set [4] (formulations prepared with ATEC, 25% w/w polymer, compared among PEG 400, TEC, ATEC), “slowest”; in data set [4] (formulations prepared with PEG 400, 25% w/w polymer, compared among PEG 400, TEC, ATEC), “fastest”; in data set [4] (on decreasing inherent viscosity of polymer from 0.76 to 0.15, PEG 400) it was “dramatically increased”; in data set [4] (on decreasing polymer in the formulations from 25% to 10% (PEG 400 75% to 90%), 37° C.), “dramatically increased”. Further, the drug release result in data set [4] (on increasing PEG 400 from 0% PEG 400/100% TEC to 100% PEG 400/0% TEC, 25% w/w polymer, 37° C.) was “faster”; in data set [4] (polymer to plasticizer ratio 1:5 (16.67% polymer) compared to 1:3, PEG 400/TEC blends) it was “Faster”. For the same compound, the “cumulative amount of drug released” value in data set [4] (on increasing drug in the formulations from 10 to 30% w/w, 25% w/w 50/50 PLGA (i.v. 0.59) + PEG 400, 37° C., isotonic phosphate buffer with sodium sulfite) is reported as “increased”.
